In article PMC12434667 (Journal of Medicinal Chemistry, 2025):
≈ marks a conversion by molar mass, not a printed value.

Tests used:
[1] = system: panel of nonmutant kinases; assay: Kinomescan panel; assay type: binding; conditions: for kinases tested showing >90% inhibition versus control: 1 μM, panel of 403 nonmutant kinases; for kinomescan S(10) score: 1 uM, nonmutant kinases with % Ctrl <10 / nonmutant kinases tested
CDK6/CyclinD3 = CDK6/CyclinD3 (Homo sapiens, UniProt Q00534); assay: Biochemical enzymatic inhibition assay; conditions: biochemical IC50 vs CDK2
CDK4/CyclinD3 = CDK4/CyclinD3 (Homo sapiens, UniProt P11802); assay: Biochemical enzymatic inhibition assay; conditions: biochemical IC50 vs CDK2
CDK1/cyclinB1 = CDK1/cyclinB1 (Homo sapiens, UniProt P06493); conditions: biochemical IC50 vs CDK2
CDK9/CyclinT1 = CDK9/CyclinT1 (Homo sapiens, UniProt P50750); assay: Biochemical enzymatic inhibition assay; conditions: biochemical IC50 vs CDK2
CDK2 = CDK2 (Homo sapiens, UniProt P24941); assay: 14-hr AlphaLISA of CDK2 degradation in MKN1 CCNE1amp cells; assay type: cell-based; conditions: read-out: MKN1 CDK2 DC50
[2] = MDCK passive permeability; assay type: in vitro ADME, canine; conditions: dog, pH 7.4
LogD = assay type: physicochemical; conditions: 1-octanol/phosphate buffer, pH 7.4
FaSSIF solubility = assay type: physicochemical; conditions: kinetic from dmso stock
Microsomal stability [3] = assay type: in vitro ADME; conditions: rat, liver microsomes
MDR1 = MDR1 (Homo sapiens, UniProt P08183); assay: MDCK-MDR1 efflux ratio; assay type: in vitro ADME; conditions: dog, MDCK-MDR1, pH 7.4
Rat PK = assay type: in vivo; conditions: in vivo; for Vd / clearance / half-life: iv, 2 mg/kg; for bioavailability: oral, 10 mg/kg
Microsomal stability [4] = assay type: in vitro ADME; conditions: human, liver microsomes
CDK2/CRBN = CDK2/CRBN (Homo sapiens, UniProt P24941+Q96SW2); assay: AlphaLisa ternary complex formation assay; assay type: binding; conditions: compound 28 used as 100% control
CYP3A4 = CYP3A4 (Homo sapiens, UniProt P08684); assay: Cyp3A4 TDI; assay type: in vitro ADME
HCC1569 tumor xenograft = HCC1569 tumor xenograft efficacy; assay type: in vivo, mouse; conditions: 150 mg/kg PO BID, 28 days
[5] = CYP3A4 TDI (+NADPH), 30 min pre-incubation with NADPH
[6] = CYP3A4 TDI (-NADPH), 30 min pre-incubation without NADPH

Chain of MDR1 (P08183 whole entry, species assumed): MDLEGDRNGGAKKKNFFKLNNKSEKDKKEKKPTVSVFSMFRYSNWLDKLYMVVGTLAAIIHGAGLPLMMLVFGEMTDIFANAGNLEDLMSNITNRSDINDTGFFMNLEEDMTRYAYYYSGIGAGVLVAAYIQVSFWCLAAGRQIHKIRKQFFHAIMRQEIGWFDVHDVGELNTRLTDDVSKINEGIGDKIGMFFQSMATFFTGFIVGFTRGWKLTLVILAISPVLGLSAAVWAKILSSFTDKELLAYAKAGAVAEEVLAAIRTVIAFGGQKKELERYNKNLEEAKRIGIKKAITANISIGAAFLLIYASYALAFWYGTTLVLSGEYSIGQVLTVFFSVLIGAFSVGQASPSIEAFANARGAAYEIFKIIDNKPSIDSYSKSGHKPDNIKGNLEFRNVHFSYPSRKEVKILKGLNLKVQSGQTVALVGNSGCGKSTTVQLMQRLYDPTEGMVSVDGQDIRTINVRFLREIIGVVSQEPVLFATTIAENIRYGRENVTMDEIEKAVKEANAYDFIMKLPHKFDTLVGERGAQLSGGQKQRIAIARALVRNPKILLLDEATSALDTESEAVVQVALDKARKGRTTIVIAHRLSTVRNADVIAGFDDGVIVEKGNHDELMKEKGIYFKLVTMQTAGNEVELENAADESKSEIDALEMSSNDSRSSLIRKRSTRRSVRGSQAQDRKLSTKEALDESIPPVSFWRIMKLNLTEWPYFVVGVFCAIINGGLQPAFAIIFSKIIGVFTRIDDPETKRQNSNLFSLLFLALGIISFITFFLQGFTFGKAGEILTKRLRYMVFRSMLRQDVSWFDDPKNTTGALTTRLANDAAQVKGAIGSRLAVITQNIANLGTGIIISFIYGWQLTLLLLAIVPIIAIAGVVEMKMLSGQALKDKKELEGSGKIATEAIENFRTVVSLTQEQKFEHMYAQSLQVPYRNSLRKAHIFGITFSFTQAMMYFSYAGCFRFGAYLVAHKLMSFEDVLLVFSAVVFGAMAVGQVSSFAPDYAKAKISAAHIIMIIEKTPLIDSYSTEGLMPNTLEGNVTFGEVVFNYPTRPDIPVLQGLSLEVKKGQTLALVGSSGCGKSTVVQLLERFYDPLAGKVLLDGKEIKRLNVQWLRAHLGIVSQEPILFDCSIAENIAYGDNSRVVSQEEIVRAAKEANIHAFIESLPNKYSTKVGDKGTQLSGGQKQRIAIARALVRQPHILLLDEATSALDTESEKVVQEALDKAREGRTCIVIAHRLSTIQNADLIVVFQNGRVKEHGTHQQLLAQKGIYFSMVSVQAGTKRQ
Chain of CDK2/CRBN (Q16531 whole entry): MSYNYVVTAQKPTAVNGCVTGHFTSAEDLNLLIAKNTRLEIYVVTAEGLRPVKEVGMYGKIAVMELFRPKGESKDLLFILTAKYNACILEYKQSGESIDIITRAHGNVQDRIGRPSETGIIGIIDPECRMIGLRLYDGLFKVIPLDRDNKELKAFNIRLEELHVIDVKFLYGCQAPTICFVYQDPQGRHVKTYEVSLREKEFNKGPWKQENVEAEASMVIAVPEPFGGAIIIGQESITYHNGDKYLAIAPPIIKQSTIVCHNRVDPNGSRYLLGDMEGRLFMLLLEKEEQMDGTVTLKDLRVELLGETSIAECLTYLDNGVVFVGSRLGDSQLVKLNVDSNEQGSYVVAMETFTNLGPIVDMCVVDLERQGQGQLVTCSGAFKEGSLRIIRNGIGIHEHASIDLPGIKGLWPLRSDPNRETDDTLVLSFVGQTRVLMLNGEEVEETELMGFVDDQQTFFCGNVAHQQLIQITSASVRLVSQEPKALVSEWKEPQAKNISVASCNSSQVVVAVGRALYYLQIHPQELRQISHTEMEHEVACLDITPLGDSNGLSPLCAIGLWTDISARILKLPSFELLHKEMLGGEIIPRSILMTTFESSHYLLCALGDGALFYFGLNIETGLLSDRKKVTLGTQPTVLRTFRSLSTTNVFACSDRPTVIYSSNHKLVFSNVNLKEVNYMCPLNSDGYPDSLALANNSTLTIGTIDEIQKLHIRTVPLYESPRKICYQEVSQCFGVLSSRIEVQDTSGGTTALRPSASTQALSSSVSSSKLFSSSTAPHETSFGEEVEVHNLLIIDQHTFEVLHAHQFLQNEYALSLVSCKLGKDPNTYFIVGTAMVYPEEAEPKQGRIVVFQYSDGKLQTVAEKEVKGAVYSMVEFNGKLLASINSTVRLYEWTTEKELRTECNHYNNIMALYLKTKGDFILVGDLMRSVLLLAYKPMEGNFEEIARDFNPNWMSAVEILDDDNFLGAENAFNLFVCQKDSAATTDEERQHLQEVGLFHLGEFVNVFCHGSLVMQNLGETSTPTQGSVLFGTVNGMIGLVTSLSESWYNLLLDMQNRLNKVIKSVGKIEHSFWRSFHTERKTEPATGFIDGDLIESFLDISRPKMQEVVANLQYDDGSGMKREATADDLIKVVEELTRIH
Chain of CDK2/CRBN (Q96SW2 40-442): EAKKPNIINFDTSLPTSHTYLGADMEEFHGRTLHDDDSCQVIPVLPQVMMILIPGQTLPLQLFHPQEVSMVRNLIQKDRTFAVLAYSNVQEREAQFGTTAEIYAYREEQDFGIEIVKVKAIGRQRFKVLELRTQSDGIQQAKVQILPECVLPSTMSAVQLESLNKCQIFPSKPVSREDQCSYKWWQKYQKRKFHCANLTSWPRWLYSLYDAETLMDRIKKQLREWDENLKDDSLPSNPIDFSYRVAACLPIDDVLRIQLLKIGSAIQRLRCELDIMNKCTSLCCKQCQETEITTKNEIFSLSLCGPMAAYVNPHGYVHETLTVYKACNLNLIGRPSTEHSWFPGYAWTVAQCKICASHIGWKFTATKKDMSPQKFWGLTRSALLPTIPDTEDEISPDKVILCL
Chain of CDK1/cyclinB1 (P14635 whole entry): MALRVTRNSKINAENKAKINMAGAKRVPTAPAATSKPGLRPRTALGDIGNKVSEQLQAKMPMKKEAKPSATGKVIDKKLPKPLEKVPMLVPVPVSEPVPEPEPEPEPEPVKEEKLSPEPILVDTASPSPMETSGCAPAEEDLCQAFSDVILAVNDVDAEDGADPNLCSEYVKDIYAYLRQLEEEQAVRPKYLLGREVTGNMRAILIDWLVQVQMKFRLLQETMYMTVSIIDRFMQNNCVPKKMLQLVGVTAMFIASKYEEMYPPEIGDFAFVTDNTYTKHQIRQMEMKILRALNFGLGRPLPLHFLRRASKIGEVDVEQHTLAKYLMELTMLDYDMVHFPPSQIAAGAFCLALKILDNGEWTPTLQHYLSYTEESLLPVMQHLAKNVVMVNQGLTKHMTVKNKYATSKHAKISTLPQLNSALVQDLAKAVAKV
Chain of CDK1/cyclinB1 (P06493 whole entry): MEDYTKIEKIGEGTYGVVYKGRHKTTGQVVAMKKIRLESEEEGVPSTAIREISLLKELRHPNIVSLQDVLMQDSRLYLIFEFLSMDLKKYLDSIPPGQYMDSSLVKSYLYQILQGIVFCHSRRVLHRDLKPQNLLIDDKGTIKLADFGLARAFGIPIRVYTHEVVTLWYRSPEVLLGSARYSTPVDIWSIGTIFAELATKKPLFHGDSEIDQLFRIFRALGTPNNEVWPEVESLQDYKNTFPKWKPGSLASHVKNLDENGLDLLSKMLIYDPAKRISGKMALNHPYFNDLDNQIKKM
Chain of CYP3A4 (P08684 whole entry): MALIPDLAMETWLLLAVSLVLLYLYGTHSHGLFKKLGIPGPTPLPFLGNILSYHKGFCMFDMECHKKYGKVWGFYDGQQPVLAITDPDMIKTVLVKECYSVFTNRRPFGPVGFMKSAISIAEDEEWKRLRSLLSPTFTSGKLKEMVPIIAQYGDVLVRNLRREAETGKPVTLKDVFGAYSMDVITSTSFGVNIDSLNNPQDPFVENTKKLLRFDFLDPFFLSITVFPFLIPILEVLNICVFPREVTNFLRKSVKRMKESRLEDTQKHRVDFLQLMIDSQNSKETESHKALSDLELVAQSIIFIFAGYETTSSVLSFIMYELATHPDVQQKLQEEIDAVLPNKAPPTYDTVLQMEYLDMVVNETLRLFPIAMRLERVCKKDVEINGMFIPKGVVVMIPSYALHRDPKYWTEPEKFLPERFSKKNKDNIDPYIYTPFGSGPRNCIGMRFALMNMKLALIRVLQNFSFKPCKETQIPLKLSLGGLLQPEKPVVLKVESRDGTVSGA
Chain of CDK6/CyclinD3 (Q00534 whole entry): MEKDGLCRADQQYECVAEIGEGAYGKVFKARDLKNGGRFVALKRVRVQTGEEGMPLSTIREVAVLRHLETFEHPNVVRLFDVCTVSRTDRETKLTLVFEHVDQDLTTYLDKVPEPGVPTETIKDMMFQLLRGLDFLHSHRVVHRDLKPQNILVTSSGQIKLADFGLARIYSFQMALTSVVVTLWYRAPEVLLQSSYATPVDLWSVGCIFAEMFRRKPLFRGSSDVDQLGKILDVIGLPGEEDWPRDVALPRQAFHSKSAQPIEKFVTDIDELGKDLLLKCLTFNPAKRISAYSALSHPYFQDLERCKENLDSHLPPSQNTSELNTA
Chain of CDK6/CyclinD3 (P30281 whole entry partner): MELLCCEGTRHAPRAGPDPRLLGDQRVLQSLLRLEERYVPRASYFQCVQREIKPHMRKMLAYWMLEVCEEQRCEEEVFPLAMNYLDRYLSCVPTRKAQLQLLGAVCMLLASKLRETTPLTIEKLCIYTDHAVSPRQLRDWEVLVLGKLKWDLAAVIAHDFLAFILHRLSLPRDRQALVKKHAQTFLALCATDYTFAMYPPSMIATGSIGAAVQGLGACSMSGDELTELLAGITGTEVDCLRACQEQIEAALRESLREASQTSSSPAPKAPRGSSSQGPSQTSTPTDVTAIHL
Chain of CDK4/CyclinD3 (P11802 whole entry): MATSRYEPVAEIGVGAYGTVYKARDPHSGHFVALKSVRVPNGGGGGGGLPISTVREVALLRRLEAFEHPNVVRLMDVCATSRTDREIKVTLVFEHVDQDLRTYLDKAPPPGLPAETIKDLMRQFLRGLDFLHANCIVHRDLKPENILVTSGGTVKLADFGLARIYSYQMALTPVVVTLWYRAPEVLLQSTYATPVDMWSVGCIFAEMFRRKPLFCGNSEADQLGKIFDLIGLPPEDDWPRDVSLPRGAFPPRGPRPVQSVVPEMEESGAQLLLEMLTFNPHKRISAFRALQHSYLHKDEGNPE
Chain of CDK4/CyclinD3 (P30281 whole entry partner): as the sequence (P30281 whole entry partner) above

CNS(=O)(=O)c1ccc(Nc2ncc3cc(Cl)c(=O)n(C4CCCC4)c3n2)c(C)c1 [Compound 1]
kinases tested showing >90% inhibition versus control [1]: 18/403
selectivity over CDK6 (CDK6/CyclinD3): > 124 fold
selectivity over CDK4 (CDK4/CyclinD3): > 44 fold

CNS(=O)(=O)c1ccc(Nc2ncc(C(F)(F)F)c([C@H]3CC[C@@](C)(O)CC3)n2)c(C)c1 [Compound 3]
kinases tested showing >90% inhibition versus control [1]: 2/403
selectivity vs CDK1 (CDK1/cyclinB1): 47 fold
selectivity vs CDK9 (CDK9/CyclinT1): > 357 fold

CNS(=O)(=O)c1ccc(Nc2ncc(C(F)(F)F)c([C@H]3CC[C@](C)(O)CC3)n2)c(C)c1 [Compound 4, trans-4-[[4-(4-Hydroxy-4-methyl-cyclohexyl)-5-(trifluoromethyl)pyrimidin-2-yl]amino]-N,3-dimethyl-benzenesulfonamide]
selectivity vs CDK1 (CDK1/cyclinB1): 16 fold

CNS(=O)(=O)c1ccc(Nc2ncc(C(F)(F)F)c(N3CCC[C@](C)(O)C3)n2)c(C)c1 [Compound 7]
kinases tested showing >90% inhibition versus control [1]: 4/403
selectivity vs CDK1 (CDK1/cyclinB1): 42 fold
selectivity vs CDK9 (CDK9/CyclinT1): > 5000 fold

Cc1cc(S(=O)(=O)NCCO[C@H]2CC[C@H](CN3CCC(c4ccc5c(c4)n(C)c(=O)n5C4CCC(=O)NC4=O)CC3)CC2)ccc1Nc1ncc(C(F)(F)F)c([C@H]2CC[C@@](C)(O)CC2)n1 (stereo partly shown) [Compound 8]
DC50 (CDK2): 4.9 nM
Papp A→B at 120 min, 1 µM [2]: 1 ×10⁻⁶ cm/s
logD at 1 h (LogD): 4.1
solubility at 2 h (FaSSIF solubility): 153 µM (≈ 142 µg/mL)
CLint scaled at 1 µM (Microsomal stability [3]): < 21 mL/min/kg
efflux ratio at 120 min, 1 μM (MDR1): > 30
Vd (Rat PK): 15 L/kg
clearance (Rat PK): 59 mL/min/kg
half-life (Rat PK): 5.7 h
bioavailability (Rat PK): 1%
CLint scaled at 1 µM (Microsomal stability [4]): 79 mL/min/kg

Cc1cc(S(=O)(=O)NCCO[C@H]2CC[C@H](CN3CCC(c4ccc5c(c4F)n(C)c(=O)n5C4CCC(=O)NC4=O)CC3)CC2)ccc1Nc1ncc(C(F)(F)F)c([C@H]2CC[C@@](C)(O)CC2)n1 (stereo partly shown) [Compound 9]
DC50 (CDK2): 12 nM
Papp A→B at 120 min, 1 µM [2]: 2 ×10⁻⁶ cm/s
logD at 1 h (LogD): 4.6
solubility at 2 h (FaSSIF solubility): 173 µM (≈ 163 µg/mL)
CLint scaled at 1 µM (Microsomal stability [3]): 26 mL/min/kg
efflux ratio at 120 min, 1 μM (MDR1): > 54
Vd (Rat PK): 11 L/kg
clearance (Rat PK): 45 mL/min/kg
half-life (Rat PK): 4.9 h
bioavailability (Rat PK): 5%
CLint scaled at 1 µM (Microsomal stability [4]): 102 mL/min/kg

[2H][C@@](C)(COC1CCC(CN2CCN(c3ccc4c(c3F)n(C)c(=O)n4C3CCC(=O)NC3=O)CC2)CC1)NS(=O)(=O)c1ccc(Nc2ncc(C(F)(F)F)c(N3CCC[C@](C)(O)C3)n2)c(C)c1 (stereo partly shown) [Compound 13]
DC50 (CDK2): 1 nM
Papp A→B at 120 min, 1 µM [2]: 2.3 ×10⁻⁶ cm/s
logD at 1 h (LogD): 4.6
solubility at 2 h (FaSSIF solubility): 62 µM (≈ 59.5 µg/mL)
CLint scaled at 1 µM (Microsomal stability [3]): 25 mL/min/kg
efflux ratio at 120 min, 1 μM (MDR1): 91
CLint scaled at 1 µM (Microsomal stability [4]): 143 mL/min/kg

Cc1cc(S(=O)(=O)N[C@H]2CC[C@H](N3CCN(CC4CCN(c5cccc6c5n(C)c(=O)n6C5CCC(=O)NC5=O)CC4)CC3)CC2)ccc1Nc1ncc(C(F)(F)F)c(N2CCC[C@](C)(O)C2)n1 (stereo partly shown) [Compound 14]
CDK2/CRBN/degrader ternary complex normalized AUC (CDK2/CRBN): 10

Cc1cc(S(=O)(=O)NC2CC(N3CCN(CC4CCN(c5cccc6c5n(C)c(=O)n6C5CCC(=O)NC5=O)CC4)CC3)C2)ccc1Nc1ncc(C(F)(F)F)c(N2CCC[C@](C)(O)C2)n1 (stereo partly shown) [Compound 15]
CDK2/CRBN/degrader ternary complex normalized AUC (CDK2/CRBN): 9.5

Cc1cc(S(=O)(=O)N[C@]2(C)C[C@@H](N3CCN(CC4CCN(c5ccc6c(c5F)n(C)c(=O)n6C5CCC(=O)NC5=O)CC4)CC3)C2)ccc1Nc1ncc(C(F)(F)F)c(N2CCC[C@](C)(O)C2)n1 (stereo partly shown) [Compound 17]
CDK2/CRBN/degrader ternary complex normalized AUC (CDK2/CRBN): 13

Cc1cc(S(=O)(=O)NC2CC(N3CCN(CC4CCN(c5cccc6c5n(C)c(=O)n6C5CCC(=O)NC5=O)CC4)C4(CC4)C3)C2)ccc1Nc1ncc(C(F)(F)F)c(N2CCC[C@](C)(O)C2)n1 (stereo partly shown) [Compound 19]
CDK2/CRBN/degrader ternary complex normalized AUC (CDK2/CRBN): 27

Cc1cc(S(=O)(=O)NC2CC(N3CC[C@@H](OC4CN(c5cccc6c5n(C)c(=O)n6C5CCC(=O)NC5=O)C4)[C@H](F)C3)C2)ccc1Nc1ncc(C(F)(F)F)c(N2CCC[C@](C)(O)C2)n1 (stereo partly shown) [Compound 20]
CDK2/CRBN/degrader ternary complex normalized AUC (CDK2/CRBN): 7.9

Cc1cc(S(=O)(=O)NC2CC(N3CCN(CC4CCN(c5ccc(NC6CCC(=O)NC6=O)cc5C)CC4)CC3)C2)ccc1Nc1ncc(C(F)(F)F)c(N2CCC[C@](C)(O)C2)n1 (stereo partly shown) [Compound 21]
CDK2/CRBN/degrader ternary complex normalized AUC (CDK2/CRBN): 4.0

Cc1cc(S(=O)(=O)N[C@H]2C[C@H](CN3CC(c4ccc(C5CCC(=O)NC5=O)c(Cl)c4)C3)C2)ccc1Nc1ncc(C(F)(F)F)c(N2CCC[C@](C)(O)C2)n1 (stereo partly shown) [Compound 22]
CDK2/CRBN/degrader ternary complex normalized AUC (CDK2/CRBN): 0

Cc1cc(S(=O)(=O)N[C@H]2C[C@H](CN3CCN(c4ccc(C5CCC(=O)NC5=O)c(Cl)c4)CC3)C2)ccc1Nc1ncc(C(F)(F)F)c(N2CCC[C@](C)(O)C2)n1 (stereo partly shown) [Compound 23]
CDK2/CRBN/degrader ternary complex normalized AUC (CDK2/CRBN): 4.8

Cc1cc(S(=O)(=O)N[C@H]2CC[C@H](CN3CCN(c4ccc(C5CCC(=O)NC5=O)c(Cl)c4)CC3)CC2)ccc1Nc1ncc(C(F)(F)F)c(N2CCC[C@](C)(O)C2)n1 (stereo partly shown) [Compound 24]
CDK2/CRBN/degrader ternary complex normalized AUC (CDK2/CRBN): 92
CYP3A4 inhibition (in words) (CYP3A4): time- and NADPH-dependent inhibition

Cc1cc(S(=O)(=O)NC2CCC(CN3CCN(c4cccc(C5CCC(=O)NC5=O)c4)CC3)CC2)ccc1Nc1ncc(C(F)(F)F)c(N2CCC[C@](C)(O)C2)n1 (stereo partly shown) [Compound 26]
CDK2/CRBN/degrader ternary complex normalized AUC (CDK2/CRBN): 0

Cc1cc(S(=O)(=O)N[C@H]2CC[C@H](CN3CCN(c4ccc(NC5CCC(=O)NC5=O)cc4F)CC3)CC2)ccc1Nc1ncc(C(F)(F)F)c(N2CCC[C@](C)(O)C2)n1 (stereo partly shown) [Compound 27]
CDK2/CRBN/degrader ternary complex normalized AUC (CDK2/CRBN): 35

Cc1cc(S(=O)(=O)N[C@H]2CC[C@H](CN3CCN(c4cccc(NC5CCC(=O)NC5=O)c4)CC3)CC2)ccc1Nc1ncc(C(F)(F)F)c(N2CCC[C@](C)(O)C2)n1 (stereo partly shown) [Compound 28]
CDK2/CRBN/degrader ternary complex normalized AUC (CDK2/CRBN): 100

Cc1cc(S(=O)(=O)N[C@H]2CC[C@H](CN3CCN(c4ccc(C5CCC(=O)NC5=O)cc4F)CC3)CC2)ccc1Nc1ncc(C(F)(F)F)c(N2CCC[C@](C)(O)C2)n1 (stereo partly shown) [Compound 29]
kinomescan S(10) score [1]: 0.007

C[C@]1(O)CCCN(c2nc(Nc3ccc(S(=O)(=O)N[C@H]4CC[C@H](CN5CCN(c6ccc(C7CCC(=O)NC7=O)cc6F)CC5)CC4)cc3F)ncc2C(F)(F)F)C1 (stereo partly shown) [Compound 31]
kinomescan S(10) score [1]: 0
IC50 (CYP3A4; [5]): > 10000 nM
IC50 (CYP3A4; [6]): > 10000 nM

C[C@]1(O)CCCN(c2nc(Nc3ccc(S(=O)(=O)N[C@H]4CC[C@H](CN5CCN(c6ccc(C7CCC(=O)NC7=O)cc6F)CC5)CC4)cc3Cl)ncc2C(F)(F)F)C1 (stereo partly shown) [Compound 32]
kinomescan S(10) score [1]: 0
IC50 (CYP3A4; [5]): > 10000 nM
IC50 (CYP3A4; [6]): > 10000 nM

COCc1cc(C(=O)Nc2cc([C@H]3CC[C@@H](OC(=O)NC(C)C)C3)[nH]n2)n(C)n1 [PF-07104091, reference compound]
antitumor activity (HCC1569 tumor xenograft): stable disease (30 to −30% is stable disease (0% = Tumor Stasis))
day 28 %dTV (mean ± SEM) (HCC1569 tumor xenograft; HCC1569 xenograft mice): 4 ± 15%
